Patent publication US8609725B2, “Method of using beta-hydroxy-beta-methylbutyrate for reducing tumor growth rate” (Abbott Laboratories, priority 2004, dated 2013)

What was measured:
proteasome = assay: Functional proteasome 'chymotrypsin-like' enzyme activity in gastrocnemius muscle of MAC16 mice; type: in vivo, NMRI mice; conditions: HMB 0.25 g/kg, EPA 0.6 g/kg or combination, 3 days
Method: Functional proteasome activity was determined by measuring the ‘chymotrypsin-like’ enzyme activity, the predominant proteolytic activity of the β-subunits of the proteasome according to the method of Orino, E. et al. ATP-dependent reversible association of proteasomes with multiple protein components to form 26S complexes that degrade ubiquitinated proteins in human HL-60 cells. FEBS Lett., 284: 206-210, 1991. Muscles were rinsed with ice-cold PBS, minced and sonicated in 20 mM Tris. HCl, pH 7.5, 2 mM ATP, 5 mM MgCl2 and 1 mM DTT. The sonicate was then centrifuged for 10 min at 18,000 g, at 4° C. and the supernatant was used to determine ‘chymotrypsin-like’ enzyme activity by the release of aminomethyl coumarin (AMC) from the fluorogenic substrate succinyl-LLVY-AMC. Activity was measured in the absence and presence of the specific proteasome inhibitor lactacystin (10 μM). Only lactacystin suppressible activity was considered to be proteasome specific.

[1] = test system: soleus muscle of mice bearing the MAC16 tumor; assay: Soleus muscle weight and protein degradation (tyrosine release) in MAC16 mice; type: in vivo, NMRI mice; conditions: EPA 0.6 g/kg, HMB 0.25 g/kg or the combination for 3 days
From the text: Pure strain male NMRI mice (average weight 25 g) were obtained from our own inbred colony and were transplanted with fragments of the MAC16 tumor s.c. into the flank by means of a trochar, selecting from donor animals with established weight loss as described in Bibby, M. C. et al. Characterization of a transplantable adenocarcinoma of the mouse colon producing cachexia in recipient animals. J. Natl. Cancer Inst., 78: 539-546, 1987. Transplanted animals were fed a rat and mouse breeding diet (Special Diet Services, Witham, United Kingdom) and water ad libitum, and weight loss was evident 10-12 days after tumor implantation. Animals just prior to the development of weight loss were randomized to receive daily either EPA (in olive oil), HMB (in PBS) or the combination as described in the figure legends administered p.o. by gavage, while control animals received either olive oil or PBS. EPA (98% as free acid) was purchased from Biomol Research Laboratories Inc., PA, USA. HMB (as the calcium salt) was obtained from Abbott Laboratories, Columbus, Ohio, USA. All groups contained a minimum of 6 mice. Tumor volume, body weight and food and water intake were monitored daily. […] Protein degradation was determined by the release of tyrosine over a 2 h period as described in […]. et al. A fluorimetric method for the estimation of tyrosine in plasma and tissues. […]

[2] = test system: β subunits of the proteasome; assay: 'Chymotrypsin-like' enzyme activity in PIF-treated murine myotubes; type: cell-based
Method: The functional activity of the β subunits of the proteasome was determined as the ‘chymotrypsin-like’ enzyme activity obtained fluorimetrically according to the method of Orino, E. et al. ATP-dependent reversible association of proteasomes with multiple protein components to form 26S complexes that degrade ubiquitinated proteins in human HL-60 cells. FEBS Lett., 284: 206-210, 1991. Myotubes were exposed to PIF for 24 h with or without EPA or HMB added 2 h prior to PIF and enzyme activity was determined in a supernatant fraction (Whitehouse, A. S. et al. Increased expression of the ubiquitin-proteasome pathway in murine myotubes by proteolysis-inducing factor (PIF) is associated with activation of the transcription factor NF-κB. Br. J. Cancer, 89: 1116-1122, 2003) by the release of aminomethyl coumarin (AMC) from succinyl-LLVY-AMC (0.1 mM) in the presence or absence of the specific proteasome inhibitor lactacystin (10 μM) (Fenteany, G. et al. Lactacystin, proteasome function and cell fate. J. Biol. Chem., 273: 8545-8548, 1998). Only lactacystin suppressible activity was considered to be proteasome specific. Activity was adjusted for the protein concentration of the sample, determined using the Bradford assay (Sigma Chemical Co., Dorset, United Kingdom) using bovine serum albumin as standard.

I-κBα = assay: PIF-induced degradation of I-κBα in murine myotubes; type: cell-based; conditions: 50 μM HMB
Method: For Western blot analysis, cytosolic protein (2 to 5 μg) obtained for the above assay were resolved on 10% SDS-PAGE and transferred to 0.45 μm nitrocellulose membrane, which had been blocked with 5% Marvel in PBS, at 4° C. overnight. The primary antibodies were used at a dilution of 1:100 (anti-actin and PKCα); 1:500 (anti-ERK1 and 2); 1:1000 (anti-20S proteasome β-subunit and I-κBα); 1:1500 (anti-20S proteasome α-subunit) or 1:5000 (anti-p42), while the secondary antibodies were used at a dilution of 1:2000. Incubation was carried out for 2 h at room temperature and development was by ECL. Loading was quantitated by actin concentration. The in vitro study described in Example III above also evaluated the effect of HMB on molecules that are key mediators in the pathway of inflammation. This experiment was conducted as described in Example III.

rats and chicks = conditions: cited from earlier work
NF-κB = NF-κB nuclear accumulation / binding to DNA (EMSA) in murine myotubes; type: cell-based
Method: DNA binding proteins were extracted from myotubes by the method of Andrews, N. C. et al. A rapid micropreparation technique for extraction of DNA-binding proteins from limiting numbers of mammalian cells. Nucleic Acids Res., 19: 2499, 1991, which utilizes hypotonic lysis followed by high salt extraction of nuclei. The EMSA (electrophoretic mobility shift assay) binding assay was carried out according to the manufacturer's instructions. The in vitro study described in Example III above also evaluated the effect of HMB on molecules that are key mediators in the pathway of inflammation. This experiment was conducted as described in Example III.

[3] = avg., 1996 abstract, normal rats and chicks

## CC(C)(O)CC(=O)O [HMB, beta-hydroxy-beta-methylbutyric acid]
proteasome
  functional proteasome activity ('chymotrypsin-like' enzyme activity): attenuated
[1]
  tyrosine release (total protein degradation in soleus muscle): as effective as EPA
[2]; 25 μM HMB
  attenuation of PIF-induced increase in 'chymotrypsin-like' enzyme activity: completely attenuated
[2]; 50 μM
  attenuation of PIF-induced increase in 'chymotrypsin-like' enzyme activity: completely attenuated
I-κBα
  attenuation of I-κBα degradation in the presence of PIF: effectively attenuate
Rats and chicks; [3]
  change of protein breakdown: −18%
  stimulation of protein synthesis: 6%
Rats and chicks; later paper (2000), same model in rats and chicks
  effect on protein synthesis: no significant effect
NF-κB; 25 μM HMB
  inhibition of binding of NF-κB to DNA: Only partial inhibition
NF-κB; 50 μM HMB
  nuclear accumulation of NF-κB: prevent nuclear accumulation of NF-κB
